The test system of data set [1] is TERT-RPE1. The data set can be described thus: Cytotoxicity against hTERT-RPE1 cells after 48 hrs by resazurin dye-based fluorescence assay. It counts as cell-based. The note with it: Homo sapiens, RPE-1, 48 h. Background: Alamar Blue is a resazurin reagent that responds to reducing activity.
Data set [2] is described as follows: Selectivity index, ratio of IC50 for hTERT-RPE1 cells to IC50 for human CCRF-CEM cells. The data set is classed as toxicity. The note with it: hTERT-RPE1 cells versus CCRF-CEM cells, read-out: Ratio IC50.
Data set [3] has as its system TERT-RPE1. The data set can be described thus: Cytotoxicity against hTERT-RPE1 cells at 6.25 uM after 48 hrs by resazurin dye-based fluorescence assay relative to control. It counts as cell-based. To be noted: human, tert-rpe1, 48 h.
For data set [4], the system named is hTERT-BJ. The experiment in a line: Cytotoxicity against hTERT-BJ cells at 50 uM after 48 hrs by resazurin dye-based fluorescence assay relative to control. The note with it: human. It counts as cell-based.
For data set [5], the system named is hTERT-BJ. The experiment in a line: Cytotoxicity against hTERT-BJ cells after 48 hrs by resazurin dye-based fluorescence assay. It counts as cell-based. To be noted: Homo sapiens.
Data set [6] is described as follows: Selectivity index, ratio of IC50 for hTERT-RPE1 cells to IC50 for human PANC1 cells. The data set is classed as toxicity. The note with it: hTERT-RPE1 cells versus PANC1 cells, read-out: Ratio IC50.
Data set [7] can be described thus: Selectivity index, ratio of IC50 for hTERT-RPE1 cells to IC50 for human HepG2 cells. To be noted: hTERT-RPE1 cells versus HepG2 cells, read-out: Ratio IC50. The data set is classed as toxicity.
For data set [8], the system named is hTERT-BJ. The data set can be described thus: Cytotoxicity against hTERT-BJ cells at 25 uM after 48 hrs by resazurin dye-based fluorescence assay relative to control. To be noted: human. It counts as cell-based.
Data set [9] deals with hTERT-BJ. The experiment in a line: Cytotoxicity against hTERT-BJ cells at 12.50 uM after 48 hrs by resazurin dye-based fluorescence assay relative to control. The data set is classed as cell-based. The note with it: human, 12.5 µM.
Data set [10] is described as follows: Selectivity index, ratio of IC50 for hTERT-BJ cells to IC50 for human HepG2 cells. To be noted: hTERT-BJ cells versus HepG2 cells, read-out: Ratio IC50. It counts as toxicity.
A short description of data set [11]: Selectivity index, ratio of IC50 for hTERT-BJ cells to IC50 for human CCRF-CEM cells. The data set is classed as toxicity. The note with it: hTERT-BJ cells versus CCRF-CEM cells, read-out: Ratio IC50.
For data set [12], the system named is PANC-1. The experiment in a line: Antiproliferative activity against human PANC1 cells after 48 hrs by resazurin dye-based fluorescence assay. The note with it: PANC-1, 48 h. The data set is classed as functional, cell-based.
Another data set deals with CCRF-CEM. The data set can be described thus: Antiproliferative activity against human CCRF-CEM cells after 48 hrs by resazurin dye-based fluorescence assay. The data set is classed as functional, cell-based.
In data set [13] the test system is HepG2. The data set can be described thus: Induction of apoptosis in human HepG2 cells assessed as increase in caspase-3/7 activity after 24 hrs by Caspase-Glo 3/7 luminescence assay. The data set is classed as functional, cell-based.
The nature of data set [14]: Selectivity index, ratio of IC50 for hTERT-BJ cells to IC50 for human PANC1 cells. It counts as toxicity. The note with it: hTERT-BJ cells versus PANC1 cells, read-out: Ratio IC50.
For data set [15], the system named is hTERT-BJ. The experiment in a line: Cytotoxicity against hTERT-BJ cells at 6.25 uM after 48 hrs by resazurin dye-based fluorescence assay relative to control. The data set is classed as cell-based. To be noted: human.
The subject of data set [16] is TERT-RPE1. The experiment in a line: Cytotoxicity against hTERT-RPE1 cells at 25 uM after 48 hrs by resazurin dye-based fluorescence assay relative to control. It counts as cell-based. To be noted: human, tert-rpe1, 48 h.
For data set [17], the system named is TERT-RPE1. The data set can be described thus: Cytotoxicity against hTERT-RPE1 cells at 12.50 uM after 48 hrs by resazurin dye-based fluorescence assay relative to control. The data set is classed as cell-based. The note with it: human, tert-rpe1, 48 h, 12.5 µM.
In data set [18] the test system is TERT-RPE1. The data set can be described thus: Cytotoxicity against hTERT-RPE1 cells at 50 uM after 48 hrs by resazurin dye-based fluorescence assay relative to control. To be noted: human, tert-rpe1, 48 h. It counts as cell-based.
The test system of data set [19] is HepG2. The data set can be described thus: Antiproliferative activity against human HepG2 cells after 48 hrs by resazurin dye-based fluorescence assay. It counts as functional, cell-based. The note with it: HepG2, 48 h.
Data set [20] deals with PANC-1. The data set can be described thus: Induction of apoptosis in human PANC1 cells assessed as increase in caspase-3/7 activity after 24 hrs by Caspase-Glo 3/7 luminescence assay. It counts as functional, cell-based.

Molecules are shown by their SMILES.

For the compound `CCOc1ccc2nc(Cl)c(/C=N/NC(=O)c3cc4cc([N+](=O)[O-])ccc4oc3=O)cc2c1`, the IC50 (as a rule, the concentration that inhibits the measured activity by half) was more than 50 µM with TERT-RPE1 [1]; more than 50 µM in the data set on hTERT-BJ [5]; 10.5 µM in the data set on PANC-1 [12]; 15.7 µM in the data set on CCRF-CEM; 18.1 µM with HepG2 [19]. Moreover, the selectivity ratio was more than 3.19 in [2]; more than 4.75 in data set [6]; more than 2.77 in [7]; more than 2.77 in data set [10]; more than 3.19 in data set [11]; more than 4.75 in [14]. For the same compound, the Activity with TERT-RPE1 [3] is 1.74%; with hTERT-BJ [4], 3.33%; in the data set with hTERT-BJ [8], 2.13%; in the data set with hTERT-BJ [9] it was 1.38%; in the data set on HepG2 [13] it was “Dose-dependent effect”; with hTERT-BJ [15] it was 1.58%. In addition, the Activity was 5.6% with TERT-RPE1 [16], 3.92% with TERT-RPE1 [17], 10.48% with TERT-RPE1 [18] and “Dose-dependent effect” with PANC-1 [20].

(Values after ChEMBL document CHEMBL4152218, “Novel hydrazide-hydrazone and amide substituted coumarin derivatives: Synthesis, cytotoxicity screening, microarray, radiolabeling and in vivo pharmacokinetic studies” (Eur J Med Chem, 2018).)
